Reference: PubChem BioAssay AID248 (DTP/NCI, 2004)
Where “and” joins values, the source holds several entries; their conditions need not be identical. Equal entries are not always repeated. Toxic doses and inconclusive results are not listed. Cut-off read from the data, not from the text of the source: active = T/C of 150% or more; inactive = T/C below 125%.

System: L1210 leukemia ip in BDF1 mice, survival T/C
Test: NCI In Vivo Anticancer Drug Screen. Data for tumor model L1210 Leukemia (intraperitoneal) in B6D2F1 (BDF1) mice
Details: higher = longer survival
Outline: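 In this screen, tumor-bearing mice given compound are compared to those given vehicle, and their survival values are reported as a treated-to-control quotient.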

[1] = endpoint: mean survival time, dose: 100.0 mg/kg/injection, schedule: Q01DX001 (ip), vehicle: saline
[2] = endpoint: mean survival time, dose: 200.0 mg/kg/injection, schedule: Q01DX001 (ip), vehicle: saline
[3] = endpoint: mean survival time, dose: 400.0 mg/kg/injection, schedule: Q01DX001 (ip), vehicle: saline
[4] = endpoint: mean survival time, dose: 100.0 mg/kg/injection, schedule: Q01DX009 (ip), vehicle: saline with Tween-80
[5] = endpoint: mean survival time, dose: 200.0 mg/kg/injection, schedule: Q01DX009 (ip), vehicle: saline with Tween-80
[6] = endpoint: mean survival time, dose: 100.0 mg/kg/injection, schedule: Q04DX003 (ip), vehicle: saline with Tween-80
[7] = endpoint: mean survival time, dose: 200.0 mg/kg/injection, schedule: Q04DX003 (ip), vehicle: saline with Tween-80

Measured: T/C

CCOC(=O)C(CCc1ccncc1)c1ccccc1 (centres undefined)
inactive: endpoint: mean survival time, dose: 111.0 mg/kg/injection, schedule: Q01DX Z (ip), vehicle: methylcellulose (MC) 94 % of control | endpoint: mean survival time, dose: 166.0 mg/kg/injection, schedule: Q01DX Z (ip), vehicle: methylcellulose (MC) 102 % of control | endpoint: mean survival time, dose: 250.0 mg/kg/injection, schedule: Q01DX Z (ip), vehicle: methylcellulose (MC) 96 % of control

COc1cc(CCl)c(CCl)c(OC)c1OC
inactive: endpoint: mean survival time, dose: 75.0 mg/kg/injection, schedule: Q01DX001 (ip), vehicle: carboxymethylcellulose (CMC) 96 % of control | endpoint: mean survival time, dose: 150.0 mg/kg/injection, schedule: Q01DX001 (ip), vehicle: carboxymethylcellulose (CMC) 95 % of control | endpoint: mean survival time, dose: 300.0 mg/kg/injection, schedule: Q01DX001 (ip), vehicle: carboxymethylcellulose (CMC) 93 % of control

NS(=O)(=O)c1cc2c(cc1Cl)NC(CC1CCCC1)NS2(=O)=O (centres undefined)
inactive: [1] 105 % of control | [2] 100 % of control | [3] 107 % of control

CN(Cc1ccccc1)C(=O)Nc1cccc(C(F)(F)F)c1
inactive: [4] 107 % of control | [5] 98 % of control | endpoint: mean survival time, dose: 400.0 mg/kg/injection, schedule: Q01DX009 (ip), vehicle: saline with Tween-80 96 % of control

c1ccc(-c2nc[nH]c2-c2ccccc2)cc1
inactive: endpoint: mean survival time, dose: 100.0 mg/kg/injection, schedule: Q01DX009 (ip), vehicle: Klucel (hydroxypropylcellulose) (HPC) 96 % of control | endpoint: mean survival time, dose: 100.0 mg/kg/injection, schedule: Q04DX003 (ip), vehicle: Klucel (hydroxypropylcellulose) (HPC) 105 % of control | endpoint: mean survival time, dose: 200.0 mg/kg/injection, schedule: Q01DX009 (ip), vehicle: Klucel (hydroxypropylcellulose) (HPC) 91 % of control | endpoint: mean survival time, dose: 200.0 mg/kg/injection, schedule: Q04DX003 (ip), vehicle: Klucel (hydroxypropylcellulose) (HPC) 100 % of control | endpoint: mean survival time, dose: 400.0 mg/kg/injection, schedule: Q01DX009 (ip), vehicle: Klucel (hydroxypropylcellulose) (HPC) 96 % of control | endpoint: mean survival time, dose: 400.0 mg/kg/injection, schedule: Q04DX003 (ip), vehicle: Klucel (hydroxypropylcellulose) (HPC) 100 % of control

O=C(O)CSCCSCC(=O)O
inactive: endpoint: mean survival time, dose: 12.5 mg/kg/injection, schedule: Q04DX002 (ip), vehicle: carboxymethylcellulose (CMC) 95 % of control | endpoint: mean survival time, dose: 25.0 mg/kg/injection, schedule: Q04DX002 (ip), vehicle: carboxymethylcellulose (CMC) 97 % of control | endpoint: mean survival time, dose: 50.0 mg/kg/injection, schedule: Q04DX002 (ip), vehicle: carboxymethylcellulose (CMC) 98 % of control | [4] 104 % of control | [5] 94 % of control and 91 % of control

COc1ccc(-n2c(=O)c(N=Nc3ccccc3)c(O)n(-c3ccccc3OC)c2=S)cc1
inactive: endpoint: mean survival time, dose: 12.5 mg/kg/injection, schedule: Q01DX001 (ip), vehicle: saline with Tween-80 101 % of control | endpoint: mean survival time, dose: 25.0 mg/kg/injection, schedule: Q01DX001 (ip), vehicle: saline with Tween-80 90 % of control | endpoint: mean survival time, dose: 50.0 mg/kg/injection, schedule: Q01DX001 (ip), vehicle: saline with Tween-80 94 % of control

C[N+](C)(Cc1ccccc1)/N=C(\[O-])Cc1ccccc1
inactive: [1] 95 % of control | [2] 104 % of control

COC(=O)C1C2CC3OC(=O)C1(C)C3C2 (centres undefined)
inactive: [1] 103 % of control | [2] 98 % of control | [3] 97 % of control

CNC(=O)C1C(c2ccccc2)C1c1ccc(C)cc1 (centres undefined)
inactive: endpoint: mean survival time, dose: 100.0 mg/kg/injection, schedule: Q04DX002 (ip), vehicle: Klucel (hydroxypropylcellulose) (HPC) 88 % of control | endpoint: mean survival time, dose: 200.0 mg/kg/injection, schedule: Q04DX002 (ip), vehicle: Klucel (hydroxypropylcellulose) (HPC) 92 % of control | endpoint: mean survival time, dose: 400.0 mg/kg/injection, schedule: Q04DX002 (ip), vehicle: Klucel (hydroxypropylcellulose) (HPC) 103 % of control

CC(C)CCCC(=O)CCCCCCC(=O)CCN(O)C(=O)C(N)CO (centres undefined)
inactive: endpoint: mean survival time, dose: 12.5 mg/kg/injection, schedule: Q01DX009 (ip), vehicle: acetone 93 % of control | endpoint: mean survival time, dose: 25.0 mg/kg/injection, schedule: Q01DX009 (ip), vehicle: acetone 102 % of control | endpoint: mean survival time, dose: 25.0 mg/kg/injection, schedule: Q04DX003 (ip), vehicle: acetone 95 % of control | endpoint: mean survival time, dose: 50.0 mg/kg/injection, schedule: Q04DX003 (ip), vehicle: acetone 103 % of control | endpoint: mean survival time, dose: 100.0 mg/kg/injection, schedule: Q01DX001 (ip), vehicle: acetone 97 % of control

CCCCCCCCCC[n+]1ccc(C(N)=O)cc1
inactive: endpoint: mean survival time, dose: 5.0 mg/kg/injection, schedule: Q01DX009 (ip), vehicle: saline with Tween-80 97 % of control | endpoint: mean survival time, dose: 5.0 mg/kg/injection, schedule: Q04DX003 (ip), vehicle: saline 97 % of control | endpoint: mean survival time, dose: 10.0 mg/kg/injection, schedule: Q01DX009 (ip), vehicle: saline with Tween-80 96 % of control | endpoint: mean survival time, dose: 10.0 mg/kg/injection, schedule: Q04DX003 (ip), vehicle: saline 94 % of control | endpoint: mean survival time, dose: 20.0 mg/kg/injection, schedule: Q01DX009 (ip), vehicle: saline with Tween-80 96 % of control | endpoint: mean survival time, dose: 20.0 mg/kg/injection, schedule: Q04DX003 (ip), vehicle: saline 103 % of control

Cc1nc2nc(N)nc(N)c2nc1CNc1ccc(C(=O)NC(CCC(=O)O)C(=O)O)cc1 (centres undefined)
inactive: endpoint: median survival time, dose: 0.39 mg/kg/injection, schedule: Q01DX009 (ip), vehicle: other 100 % of control | endpoint: median survival time, dose: 0.65 mg/kg/injection, schedule: Q01DX009 (ip), vehicle: other 100 % of control | endpoint: median survival time, dose: 1.08 mg/kg/injection, schedule: Q01DX009 (ip), vehicle: other 100 % of control | endpoint: median survival time, dose: 1.8 mg/kg/injection, schedule: Q01DX009 (ip), vehicle: other 100 % of control | endpoint: median survival time, dose: 5.0 mg/kg/injection, schedule: Q01DX009 (ip), vehicle: other 100 % of control | endpoint: median survival time, dose: 14.0 mg/kg/injection, schedule: Q01DX009 (ip), vehicle: other 110 % of control | endpoint: median survival time, dose: 108.0 mg/kg/injection, schedule: Q01DX009 (ip), vehicle: other 100 % of control | endpoint: median survival time, dose: 180.0 mg/kg/injection, schedule: Q01DX009 (ip), vehicle: other 105 % of control | endpoint: median survival time, dose: 300.0 mg/kg/injection, schedule: Q01DX009 (ip), vehicle: other 105 % of control

Oc1c(Br)cc(Br)cc1C=Nc1ccc(Br)cc1.Oc1c(Br)cc(Br)cc1C=Nc1ccc(Br)cc1.[Co]
inactive: [6] 95 % of control | [7] 95 % of control | endpoint: mean survival time, dose: 400.0 mg/kg/injection, schedule: Q04DX003 (ip), vehicle: saline with Tween-80 95 % of control

Cc1cnc(SCc2ccc(Cl)cc2)nc1N(Cc1ccccc1)Cc1ccccc1
inactive: endpoint: mean survival time, dose: 100.0 mg/kg/injection, schedule: Q01DX Z (ip), vehicle: methylcellulose (MC) 87 % of control

CCN(CC)C(=O)O/N=C(/C)c1ccccc1
inactive: endpoint: mean survival time, dose: 100.0 mg/kg/injection, schedule: Q01DX001 (ip), vehicle: other 96 % of control | endpoint: mean survival time, dose: 200.0 mg/kg/injection, schedule: Q01DX001 (ip), vehicle: other 91 % of control

Nc1ccc(Cl)c(Cl)c1
inactive: endpoint: mean survival time, dose: 50.0 mg/kg/injection, schedule: Q01DX001 (ip), vehicle: carboxymethylcellulose (CMC) 98 % of control | endpoint: mean survival time, dose: 50.0 mg/kg/injection, schedule: Q01DX009 (ip), vehicle: alcohol 101 % of control | endpoint: mean survival time, dose: 50.0 mg/kg/injection, schedule: Q01DX009 (ip), vehicle: saline with Tween-80 92 % of control | endpoint: mean survival time, dose: 50.0 mg/kg/injection, schedule: Q04DX003 (ip), vehicle: saline with Tween-80 104 % of control | endpoint: mean survival time, dose: 100.0 mg/kg/injection, schedule: Q01DX001 (ip), vehicle: carboxymethylcellulose (CMC) 93 % of control | endpoint: mean survival time, dose: 100.0 mg/kg/injection, schedule: Q01DX009 (ip), vehicle: alcohol 109 % of control | [4] 94 % of control | endpoint: mean survival time, dose: 100.0 mg/kg/injection, schedule: Q04DX003 (ip), vehicle: alcohol 114 % of control | [6] 104 % of control | endpoint: mean survival time, dose: 200.0 mg/kg/injection, schedule: Q01DX001 (ip), vehicle: carboxymethylcellulose (CMC) 95 % of control | endpoint: mean survival time, dose: 200.0 mg/kg/injection, schedule: Q01DX009 (ip), vehicle: alcohol 90 % of control | [5] 95 % of control | endpoint: mean survival time, dose: 200.0 mg/kg/injection, schedule: Q04DX003 (ip), vehicle: alcohol 97 % of control | [7] 104 % of control
